Structures can show the parent of a compound that is named as a salt.
How the values were obtained:
Conditions in all cases: alone, foliar, approximately 21 days
[1] = tested on: SINAR; assay: Example V: postemergence herbicidal activity of mixtures in forage crops, SINAR; type: in vivo, Sinapis arvensis (wild mustard)
Experimental: (§1) Seeds or root cuttings of the desired test plant species were planted in Sun Gro MetroMix® 306 planting mixture, which typically has a pH of 6.0 to 6.8 and an organic matter content of about 30 percent, in plastic pots with a surface area of 126.6 square centimeters (cm^2). […] The plants were grown for 14-60 days in a greenhouse with an approximate 14 hour photoperiod which was maintained at approximately 28° C. during the day and 24° C. during the night.
(§2) Spray solutions of the second herbicide or experimental compound mixtures were prepared by adding the stock solutions to the appropriate amount of dilution solution to form 12 mL spray solution with active ingredients in two-way combinations.

[2] = tested on: SOOSS; assay: Example V: postemergence herbicidal activity of mixtures in forage crops, SOOSS; type: in vivo, Solidago L. spec. (goldenrod)
Experimental: as §1, §2

[3] = tested on: CIRAR; assay: Example V: postemergence herbicidal activity of mixtures in forage crops, CIRAR; type: in vivo, Cirsium arvense (Canada thistle)
Experimental: as §1, §2

[4] = tested on: TRFRE; assay: Example V: postemergence herbicidal activity of mixtures in forage crops, TRFRE; type: in vivo, Trifolium repens (white clover)
Experimental: as §1, §2

[5] = tested on: CENMA; assay: Example V: postemergence herbicidal activity of mixtures in forage crops, CENMA; type: in vivo, Centaurea maculosa (spotted knapweed)
Experimental: as §1, §2

[6] = tested on: SONAR; assay: Example V: postemergence herbicidal activity of mixtures in forage crops, SONAR; type: in vivo, Sonchus arvensis (field sowthistle)
Experimental: as §1, §2

Nc1cc(Cl)nc(C(=O)O)c1Cl [Aminopyralid TIPA salt, 4-amino-3,6-dichloropyridine-2-carboxylic acid compound with 1,1′,1″-nitrilotris[2-propanol], reference compound]
SINAR Obs (observed value) ([1]; 17.5 gae/ha): 25% | SINAR Obs (observed value) ([1]; 35 gae/ha): 45% | SOOSS Obs (observed value) ([2]; 17.5 gae/ha): 45% | CIRAR Obs (observed value) ([3]; 17.5 gae/ha): 45% | TRFRE Obs (observed value) ([4]; 17.5 gae/ha): 35%

O=C(O)c1nc(Cl)ccc1Cl [Clopyralid MEA salt, 3,6-dichloro-2-pyridinecarboxylic acid with 2-aminoethanol, reference compound]
SOOSS Obs (observed value) ([2]; 35 gae/ha): 25% | CIRAR Obs (observed value) ([3]; 35 gae/ha): 75%

CCCCCCC(C)OC(=O)COc1nc(F)c(Cl)c(N)c1Cl (stereo not drawn) [Fluroxypyr ME]
CENMA Obs (observed value) ([5]; 35 gae/ha): 0% | CENMA Obs (observed value) ([5]; 70 gae/ha): 0% | SONAR Obs (observed value) ([6]; 35 gae/ha): 0% | SONAR Obs (observed value) ([6]; 70 gae/ha): 15% | SOOSS Obs (observed value) ([2]; 70 gae/ha): 50% | CIRAR Obs (observed value) ([3]; 70 gae/ha): 10% | TRFRE Obs (observed value) ([4]; 35 gae/ha): 15% | TRFRE Obs (observed value) ([4]; 70 gae/ha): 20%

Reference: US8912120B2, “Herbicidal compositions comprising 4-amino-3-chloro-5-fluoro-6-(4-chloro-2-fluoro-3-methoxyphenyl) pyridine-2-carboxylic acid or a derivative thereof and synthetic auxin herbicides” (Dow AgroSciences, LLC., priority 2012, dated 2014)
